The text below walks through data of US20240101584A1, “TARGETED DELIVERY OF 1,2,4,5 TETRAOXANE COMPOUNDS AND THEIR USES” (Westlake University, priority 2021, published 2024).

Entries after “also recorded” stand apart in the source; their conditions may differ. Where two headings read alike, the source gives them in different places.

For data set [1], the system named is HeyA8 cells. Description: CellTiter-Glo viability, adherent HeyA8 ovarian cancer cells. The class given is cell-based. Conditions: high concentration.
The subject of data set [2] is MDA-MB-231 cells. The data set can be described thus: MTT viability assay, MDA-MB-231 cells. The class given is cell-based. The conditions noted are these: for selectivity index (IC50 of NIH3T3 divided by IC50 on MDA-MB-231): Table 12b, value in bracket. The method, then: (§1) The anticancer activities of the exemplary compounds listed in Example 1 were tested against human cervix Hela cells, mammary breast cancer MDA-MB-231 cells, human hepatocellular HepG2 cells, human colorectal HCT116 cells, mammary ductal T47D cells, non-cancerous NIH3T3 cells, dog's kidney MDCK cells, and mouse brain bEnd.3 cells, respectively.

For data set [3], the system named is NIH3T3 cells. Description: MTT viability assay, non-cancerous NIH3T3 cells. Type of data set: cell-based. The method, then: as §1
In data set [4] the test system is HEYA8 CSCs. The data set can be described thus: CellTiter-Glo viability, HeyA8 cancer stem cells (spheres). Conditions: 5 μM of erastin, 50 μM of artesunate; RSL3 single dose. The class given is cell-based.
The test system of data set [5] is HEK293 cells. The data set can be described thus: MTT viability assay, HEK293 cells. The class given is cell-based. The conditions noted are these: mean, n = 3, read-out: IC50 against HEK293 cells.
The test system of data set [6] is T47D cells. The data set can be described thus: MTT viability assay, T47D cells. The class given is cell-based. The conditions noted are these: for selectivity index (IC50 of NIH3T3 divided by IC50 on T47D): value in bracket. The method, then: as §1
The subject of data set [7] is bEnd.3 cells. The data set can be described thus: MTT viability assay, bEnd.3 cells. The conditions noted are these: mean, n = 3, read-out: IC50 against bEnd.3 cells. The class given is cell-based, mouse. The method, then:
as §1

Data set [8] has as its system MDCK cells. The data set can be described thus: MTT viability assay, MDCK cells. The class given is cell-based, dog. Conditions: 48 h incubation, mean, n = 3, read-out: IC50 against MDCK cells. The method, then:
as §1

For data set [9], the system named is Hela cells. Description: MTT viability assay, Hela cells. Type of data set: cell-based, human. The conditions noted are these: 48 h incubation, mean, n = 3, read-out: IC50 against Hela cells. The method, then:
as §1

For data set [10], the system named is HCT116 cells. The data set can be described thus: MTT viability assay, HCT116 cells. Type of data set: cell-based, human. Conditions: MTT, 48 h incubation, mean, n = 3, read-out: IC50 against HCT116 cells. The method, then:
as §1

Data set [11] concerns HepG2 cells. Description: MTT viability assay, HepG2 cells. Type of data set: cell-based, human. The conditions noted are these: MTT, 48 h incubation, mean, n = 3, read-out: IC50 against HepG2 cells. The method, then: as §1
For data set [12], the system named is MDA-MB-231 xenograft tumors. The data set can be described thus: Mouse xenograft breast tumors (MDA-MB-231). Type of data set: in vivo, Nude mice. The conditions noted are these: mouse, in vivo. The method, then: FIG. 12A is a graph showing the tumor volume of xenograft tumors versus time after s.c. injection of DMSO, PTX, compound 37b, or compound 48. Nude mice were injected s.c. with MDA-MB-231 cells (10^6) and randomly allocated to one of the six treatment groups (n=5): (i) DMSO, (ii) Paclitaxel (PTX), 5 mg/kg, (iii) compound 37b, 5 mg/kg, (iv) compound 37b, 10 mg/kg, (v) compound 48, 5 mg/kg, or (vi) compound 48, 10 mg/kg. When control animals (DMSO) began to appear tumor ulceration (25 days), all animals in the experiment were sacrificed and photographed.
FIG. 12B are photographs of the tumor from sacrificed animals of different treatment groups after 25 days. FIG. 12C is a graph showing the tumor weight of xenograft tumors versus time after s.c. injection of DMSO, PTX, compound 37b, or compound 48. Data are shown as mean±SEM. * P≤0.05 versus DMSO group. FIG. 12D are photographs showing the morphological observation of mice tissue treated with DMSO, paclitaxel, compound 37b, or compound 48 with H&E staining on heart, liver, kidney, lungs, and spleen tissues (200×).

[13] abbreviates: Homo sapiens, MDA-MB-231, 48 h, MTT, 48 h incubation, mean, n = 3, read-out: IC50 against MDA-MB-231 cells.
Setting [14] is: Mus musculus, NIH3T3, MTT, 48 h incubation, mean, n = 3, read-out: IC50 against NIH3T3 cells.
[15] abbreviates: MTT, 48 h incubation, mean, n = 3, read-out: IC50 against MDA-MB-231 cells.
Where [16] appears, read: MTT, 48 h incubation, mean, n = 3, read-out: IC50 against T47D cells.
Where [17] appears, read: Homo sapiens, HEK293, 48 h incubation.
[18] abbreviates: MTT, 48 h incubation, mean, n = 3, read-out: IC50 against NIH3T3 cells.
Setting [19] is: Homo sapiens, T47D, MTT, 48 h incubation, mean, n = 3, read-out: IC50 against T47D cells.
[20] abbreviates: Mus musculus, BEND3, 48 h incubation.
[21] abbreviates: Homo sapiens, MDA-MB-231, Table 12b, read-out: IC50 MDA-MB-231.
Setting [22] is: Mus musculus, NIH3T3, Table 12b, read-out: IC50 NIH3T3.
Where [23] appears, read: Homo sapiens, T47D, Table 12b, read-out: IC50 T47D.

Consider `C[C@H]1[C@H](OC(=O)CCC(=O)O)O[C@@H]2O[C@@]3(C)CC[C@H]4[C@H](C)CC[C@@H]1[C@@]24OO3` [Artesunate, reference compound], for which, in [1], the “cell death of adherent HEYA8 cells” value is given as approximately 50%. Also, the figures for the IC50 in data set [2] (setting [13]) and in [3] (setting [14]) were 20.3 µM and 17.4 µM, respectively. For the same compound, in [4], the “cytotoxic effect on HEYA8 CSCs at single dose” value was “did not show any cytotoxic effect; also recorded: almost insensitive”.
In the case of `O=C(CC1CCC2(CC1)OOC1(OO2)C2CC3CC(C2)CC1C3)NCCC[P+](c1ccccc1)(c1ccccc1)c1ccccc1` (stereo not drawn) [Compound 6b, (3-(2-((1r,3r,5r,7r)-dispiro[adamantane-2,3′-[1,2,4,5]tetraoxane-6′,1″-cyclohexan]-4″-yl)acetamido)propyl)triphenylphosphonium bromide], the IC50 was 2.6 µM in [2] (setting [15]); 1.6 µM in [5] (48 h incubation); 4.4 µM in data set [6] (setting [16]); 12.3 µM in data set [7] (48 h incubation); 18.1 µM in [8]; 2.2 µM in data set [9].
Turning to `CN(C)CCCNC(=O)OC1CCC2(CC1)OOC1(OO2)C2CC3CC(C2)CC1C3` (stereo not drawn) [Compound 30a, (1r,3r,5r,7r)-dispiro[adamantane-2,3′-[1,2,4,5]tetraoxane-6′,1″-cyclohexan]-4″-yl(3-(dimethylamino)propyl)carbamate], the IC50 in data set [2] (setting [13]) came out at 14.4 µM; in [5] (setting [17]), 2.5 µM; in data set [8] (Canis lupus familiaris, MDCK), 42.8 µM.
With `O=C(NCCC[P+](c1ccccc1)(c1ccccc1)c1ccccc1)OC1CCC2(CC1)OOC1(OO2)C2CC3CC(C2)CC1C3` (stereo not drawn) [Compound 30b, (3-(((((1r,3r,5r,7r)-dispiro[adamantane-2,3′-[1,2,4,5]tetraoxane-6′,1″-cyclohexan]-4″-yl)oxy)carbonyl)amino)propyl)triphenylphosphonium bromide], the IC50 in [10] turned out to be 1.4 µM; in data set [11], 1.2 µM; in data set [2] (setting [15]), 0.53 µM; in [5] (48 h incubation), 1 µM; in data set [3] (setting [18]), 5.8 µM; in [8], 5.8 µM. For the same compound, the IC50 in data set [9] came out at 2.4 µM.
Consider `CC(C)(C)C1CCC2(CC1)OOC1(CCC(O)CC1)OO2` (stereo not drawn) [Compound 37, 12-(tert-butyl)-7,8,15,16-tetraoxadispiro[5.2.59.26]hexadecan-3-ol], for which the IC50 in data set [10] (Homo sapiens, HCT-116) is 14.4 µM; in [11] (Homo sapiens, HepG2), 4.8 µM; in [2] (setting [13]), 7.4 µM; in data set [5] (setting [17]), 5.8 µM; in [3] (setting [14]), 7.1 µM; in [6] (setting [19]) it was 6.1 µM. The IC50 was more than 100 µM in [7] (setting [20]); more than 50 µM in data set [8] (Canis lupus familiaris, MDCK); 15.1 µM in data set [9] (Homo sapiens, HeLa).
Take `CN(C)CCCNC(=O)OC1CCC2(CC1)OOC1(CCC(C(C)(C)C)CC1)OO2` (stereo not drawn) [Compound 37a, 12-(tert-butyl)-7,8,15,16-tetraoxadispiro[5.2.59.26]hexadecan-3-yl(3-(dimethylamino)propyl)carbamate]: the IC50 was determined as 4.6 µM in data set [10] (Homo sapiens, HCT-116); 2 µM in data set [11] (Homo sapiens, HepG2); 2 µM in data set [2] (setting [13]); 0.8 µM in data set [5] (setting [17]); 1.7 µM in data set [3] (setting [14]); 2.2 µM in [6] (setting [19]). Also, the half-inhibitory concentration (IC50) in data set [7] (setting [20]) is 10.9 µM; in data set [8] (Canis lupus familiaris, MDCK), 23.7 µM; in data set [9] (Homo sapiens, HeLa), 3.9 µM.
With `CC(C)(C)C1CCC2(CC1)OOC1(CCC(OC(=O)Oc3ccc([N+](=O)[O-])cc3)CC1)OO2` (stereo not drawn) [Compound 37c, 12-(tert-butyl)-7,8,15,16-tetraoxadispiro[5.2.59.26]hexadecan-3-yl(4-nitrophenyl) carbonate], the “abnormal behavior or weight loss during treatment period” value in data set [12] is listed as “no abnormal behavior or weight loss”.
As to `CC(C)(C)C1CCC2(CC1)OOC1(CCC(OC(=O)N3CCNCC3)CC1)OO2` (stereo not drawn) [Compound 37f, 12-(tert-butyl)-7,8,15,16-tetraoxadispiro[5.2.59.26]hexadecan-3-yl piperazine-1-carboxylate], the IC50 in data set [2] (setting [13]) is less than 4 µM; in [2] (setting [21]) it was 2.9 ± 0.8 µM; in data set [3] (setting [14]), 11.6 µM; in data set [3] (setting [22]) it was 11.6 ± 2.4 µM; in data set [6] (setting [19]), 1.3 µM; in data set [6] (setting [23]) it was 1.3 ± 0.6 µM. Also, the IC50 was 12.4 µM in [8] (Canis lupus familiaris, MDCK) and 3.1 µM in data set [9] (Homo sapiens, HeLa). Further, in [2], the “selectivity index (IC50 of NIH3T3 divided by IC50 on MDA-MB-231)” value is reported as “(>4)”. For the same compound, the “selectivity index (IC50 of NIH3T3 divided by IC50 on T47D)” value in data set [6] (Table 12b) is reported as “(>8.9)”.
As to `CC1=CC(=O)C(C(C)(C)CC(=O)N2CCN(C(=O)OC3CCC4(CC3)OOC3(CCC(C(C)(C)C)CC3)OO4)CC2)=C(C)C1=O` (stereo not drawn) [Compound 37g, 12-(tert-butyl)-7,8,15,16-tetraoxadispiro[5.2.59.26]hexadecan-3-yl 4-(3-(2,4-dimethyl-3,6-dioxocyclohexa-1,4-dien-1-yl)-3-methylbutanoyl)piperazine-1-carboxylate], the IC50 in data set [2] (setting [13]) came out at 11 µM; in data set [2] (setting [21]), 11 ± 0.9 µM; in [3] (setting [14]) it was 26.6 µM; in data set [3] (setting [22]), 26.6 ± 2.6 µM; in data set [6] (setting [19]) it was 3.1 µM; in [6] (setting [23]), 3.1 ± 0.7 µM. In addition, the IC50 was determined as 22.3 µM in data set [8] (Canis lupus familiaris, MDCK) and 11.5 µM in [9] (Homo sapiens, HeLa). In addition, in data set [2], the “selectivity index (IC50 of NIH3T3 divided by IC50 on MDA-MB-231)” value is on record as “(>2.4)”. For the same compound, the “selectivity index (IC50 of NIH3T3 divided by IC50 on T47D)” value in [6] (Table 12b) was “(>8.5)”.
On to `CC(C)(C)C1CCC2(CC1)OOC1(CCC(OC(=O)NCCCCO[C@@H]3O[C@H](CO)[C@@H](O)[C@H](O)[C@H]3O)CC1)OO2` (stereo partly drawn) [Compound 37i, 12-(tert-butyl)-7,8,15,16-tetraoxadispiro[5.2.59.26]hexadecan-3-yl(4-(((2R,3R,4S,5S,6R)-3,4,5-trihydroxy-6-(hydroxymethyl)tetrahydro-2H-pyran-2-yl)oxy)butyl)carbamate], for which the IC50 in data set [2] (setting [15]) is 24.3 µM; in data set [3] (setting [18]) it was more than 100 µM; in data set [6] (setting [16]) it was 13.2 µM; in [8], more than 50 µM; in [9], 28.5 µM.
Turning to `CC(C)(C)C1CCC2(CC1)OOC1(CCC(OC(=O)NCCOCCOCCNC(=O)OC3CCC4(CC3)OOC3(CCC(C(C)(C)C)CC3)OO4)CC1)OO2` (stereo not drawn) [Compound 37j, bis(12-(tert-butyl)-7,8,15,16-tetraoxadispiro[5.2.59.26]hexadecan-3-yl) ((ethane-1,2-diylbis(oxy))bis(ethane-2,1-diyl))dicarbamate], the IC50 is 23.9 µM in data set [2] (setting [13]); more than 100 µM in data set [3] (setting [14]); 10.6 µM in [6] (setting [19]); more than 100 µM in [8] (Canis lupus familiaris, MDCK); 30.6 µM in data set [9] (Homo sapiens, HeLa).
As to `CCOc1ccccc1-n1c(C(C)N2CCN(C(=O)COc3ccc(Cl)cc3)CC2)nc2ccccc2c1=O` (stereo not drawn) [Erastin, reference compound], the IC50 in data set [2] (setting [13]) was 1.3 µM; in data set [3] (setting [14]), 0.29 µM. Besides, the “cytotoxic effect on HEYA8 CSCs at single dose” value in data set [4] is listed as “did not show any cytotoxic effect; also recorded: almost insensitive”.
